What was measured:
Experiment in all cases: radiometric filter-binding kinase assay, Kinase HotSpot
Conditions in all cases: compound 0.5 µM; ATP 10 µM
MAP3K2 (human) = MAP3K2 (human) (UniProt Q9Y2U5)
HIPK4 (human) = HIPK4 (human) (UniProt Q8NE63)
NEK1 (human) = NEK1 (human) (UniProt Q96PY6)
PRKCA (human) = PRKCA (human) (UniProt P17252)
CAMKK1 (human) = CAMKK1 (human) (UniProt Q8N5S9)
CLK3 (human) = CLK3 (human) (UniProt P49761)
ITK (human) = ITK (human) (UniProt Q08881)
PRKCD (human) = PRKCD (human) (UniProt Q05655)
Chain of PRKCD (human) (Q05655 whole entry, looked up): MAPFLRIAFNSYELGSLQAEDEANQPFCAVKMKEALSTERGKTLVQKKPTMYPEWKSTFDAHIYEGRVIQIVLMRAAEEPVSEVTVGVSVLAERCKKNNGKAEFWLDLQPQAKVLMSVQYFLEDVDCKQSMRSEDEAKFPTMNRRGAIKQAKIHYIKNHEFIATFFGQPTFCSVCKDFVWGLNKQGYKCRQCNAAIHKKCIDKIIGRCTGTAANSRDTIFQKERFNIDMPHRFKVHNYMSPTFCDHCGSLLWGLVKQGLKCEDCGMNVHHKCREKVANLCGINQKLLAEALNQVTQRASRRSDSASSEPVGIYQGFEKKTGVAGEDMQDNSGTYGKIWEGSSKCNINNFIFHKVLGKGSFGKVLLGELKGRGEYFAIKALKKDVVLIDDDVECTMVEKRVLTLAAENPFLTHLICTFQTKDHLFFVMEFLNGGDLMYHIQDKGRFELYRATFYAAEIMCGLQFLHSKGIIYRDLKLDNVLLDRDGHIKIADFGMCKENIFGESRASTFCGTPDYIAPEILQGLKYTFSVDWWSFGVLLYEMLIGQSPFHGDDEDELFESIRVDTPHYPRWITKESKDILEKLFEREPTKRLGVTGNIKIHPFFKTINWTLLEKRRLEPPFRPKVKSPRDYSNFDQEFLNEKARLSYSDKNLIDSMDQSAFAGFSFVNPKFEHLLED

TTK (human) = TTK (human) (UniProt P33981)
Chain of TTK (human) (P33981 whole entry, looked up): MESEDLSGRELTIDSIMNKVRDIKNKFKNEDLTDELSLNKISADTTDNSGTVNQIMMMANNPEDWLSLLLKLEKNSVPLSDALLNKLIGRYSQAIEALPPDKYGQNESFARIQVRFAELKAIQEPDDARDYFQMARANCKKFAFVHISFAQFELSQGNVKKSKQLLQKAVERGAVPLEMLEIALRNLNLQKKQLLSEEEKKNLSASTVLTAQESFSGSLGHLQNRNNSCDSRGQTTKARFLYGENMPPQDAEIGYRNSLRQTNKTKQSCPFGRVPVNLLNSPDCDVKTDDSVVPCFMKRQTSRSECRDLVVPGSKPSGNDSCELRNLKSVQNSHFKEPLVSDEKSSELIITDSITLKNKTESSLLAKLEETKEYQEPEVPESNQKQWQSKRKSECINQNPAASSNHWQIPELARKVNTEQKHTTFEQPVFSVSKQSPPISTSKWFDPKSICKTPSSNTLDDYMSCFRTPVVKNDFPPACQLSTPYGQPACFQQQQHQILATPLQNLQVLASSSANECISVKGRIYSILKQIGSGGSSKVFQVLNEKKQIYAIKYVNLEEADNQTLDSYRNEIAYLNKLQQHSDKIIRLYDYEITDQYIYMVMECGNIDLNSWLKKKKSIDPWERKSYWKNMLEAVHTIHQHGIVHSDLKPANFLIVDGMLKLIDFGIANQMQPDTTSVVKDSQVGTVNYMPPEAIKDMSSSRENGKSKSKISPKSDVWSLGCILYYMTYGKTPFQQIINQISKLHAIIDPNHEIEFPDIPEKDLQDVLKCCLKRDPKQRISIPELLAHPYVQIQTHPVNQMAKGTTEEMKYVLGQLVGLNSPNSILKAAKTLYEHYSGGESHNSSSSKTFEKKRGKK

TAOK2 (human) = TAOK2 (human) (UniProt Q9UL54)
CHEK1 (human) = CHEK1 (human) (UniProt O14757)
NTRK2 (human) = NTRK2 (human) (UniProt Q16620)
Chain of NTRK2 (human) (Q16620 whole entry, looked up): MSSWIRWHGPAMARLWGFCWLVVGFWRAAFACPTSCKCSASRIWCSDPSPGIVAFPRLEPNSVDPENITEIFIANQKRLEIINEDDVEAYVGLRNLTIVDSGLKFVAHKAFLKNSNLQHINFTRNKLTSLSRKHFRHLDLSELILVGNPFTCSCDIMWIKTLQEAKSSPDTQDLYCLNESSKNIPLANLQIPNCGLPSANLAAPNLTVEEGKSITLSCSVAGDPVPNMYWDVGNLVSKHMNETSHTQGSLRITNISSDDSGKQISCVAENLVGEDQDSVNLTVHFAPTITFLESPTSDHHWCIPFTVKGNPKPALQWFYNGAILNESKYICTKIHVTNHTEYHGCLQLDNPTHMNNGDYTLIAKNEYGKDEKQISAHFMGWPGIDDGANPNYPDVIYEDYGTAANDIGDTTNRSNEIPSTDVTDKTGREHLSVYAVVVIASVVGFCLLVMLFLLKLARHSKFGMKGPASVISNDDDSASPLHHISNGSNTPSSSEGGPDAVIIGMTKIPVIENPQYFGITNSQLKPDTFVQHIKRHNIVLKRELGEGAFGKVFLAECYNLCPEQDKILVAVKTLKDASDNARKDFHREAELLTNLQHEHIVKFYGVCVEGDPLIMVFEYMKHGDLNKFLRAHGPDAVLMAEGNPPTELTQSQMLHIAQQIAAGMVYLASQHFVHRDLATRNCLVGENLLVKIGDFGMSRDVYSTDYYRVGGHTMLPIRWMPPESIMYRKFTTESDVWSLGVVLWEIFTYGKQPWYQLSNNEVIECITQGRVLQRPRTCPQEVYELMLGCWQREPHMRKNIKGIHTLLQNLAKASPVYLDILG

PAK7 (human) = PAK7 (human) (UniProt Q9P286)
CSK (human) = CSK (human) (UniProt P41240)
MKNK2 (human) = MKNK2 (human) (UniProt Q9HBH9)
CDK2 CCNE1 (human) = CDK2 CCNE1 (human) (UniProt P24941+P24864)
DSTYK (human) = DSTYK (human) (UniProt Q6XUX3)
CHEK2 (human) = CHEK2 (human) (UniProt O96017)
CSNK1G1 (human) = CSNK1G1 (human) (UniProt Q9HCP0)
BMX (human) = BMX (human) (UniProt P51813)
Chain of BMX (human) (P51813 whole entry, looked up): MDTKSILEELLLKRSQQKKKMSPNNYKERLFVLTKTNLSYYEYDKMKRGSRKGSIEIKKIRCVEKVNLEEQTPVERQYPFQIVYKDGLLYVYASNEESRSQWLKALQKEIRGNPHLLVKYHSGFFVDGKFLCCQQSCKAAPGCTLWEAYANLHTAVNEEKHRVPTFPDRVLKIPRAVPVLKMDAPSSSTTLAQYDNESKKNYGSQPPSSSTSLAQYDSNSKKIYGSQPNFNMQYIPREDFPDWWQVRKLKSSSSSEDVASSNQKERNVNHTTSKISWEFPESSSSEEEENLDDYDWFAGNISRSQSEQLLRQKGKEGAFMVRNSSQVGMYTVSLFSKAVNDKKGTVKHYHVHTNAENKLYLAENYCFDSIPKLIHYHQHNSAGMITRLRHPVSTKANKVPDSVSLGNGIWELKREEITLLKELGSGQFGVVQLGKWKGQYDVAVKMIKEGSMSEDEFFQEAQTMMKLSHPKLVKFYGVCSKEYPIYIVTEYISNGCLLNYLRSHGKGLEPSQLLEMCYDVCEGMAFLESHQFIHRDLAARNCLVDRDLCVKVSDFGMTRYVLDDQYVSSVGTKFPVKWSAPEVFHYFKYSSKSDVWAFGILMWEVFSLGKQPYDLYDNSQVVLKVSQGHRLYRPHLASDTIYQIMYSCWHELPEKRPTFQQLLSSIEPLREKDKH

AXL (human) = AXL (human) (UniProt P30530)
GRK7 (human) = GRK7 (human) (UniProt Q8WTQ7)
YES1 (human) = YES1 (human) (UniProt P07947)
PKN2 (human) = PKN2 (human) (UniProt Q16513)
MAP3K9 (human) = MAP3K9 (human) (UniProt P80192)
Chain of MAP3K9 (human) (P80192 whole entry, looked up): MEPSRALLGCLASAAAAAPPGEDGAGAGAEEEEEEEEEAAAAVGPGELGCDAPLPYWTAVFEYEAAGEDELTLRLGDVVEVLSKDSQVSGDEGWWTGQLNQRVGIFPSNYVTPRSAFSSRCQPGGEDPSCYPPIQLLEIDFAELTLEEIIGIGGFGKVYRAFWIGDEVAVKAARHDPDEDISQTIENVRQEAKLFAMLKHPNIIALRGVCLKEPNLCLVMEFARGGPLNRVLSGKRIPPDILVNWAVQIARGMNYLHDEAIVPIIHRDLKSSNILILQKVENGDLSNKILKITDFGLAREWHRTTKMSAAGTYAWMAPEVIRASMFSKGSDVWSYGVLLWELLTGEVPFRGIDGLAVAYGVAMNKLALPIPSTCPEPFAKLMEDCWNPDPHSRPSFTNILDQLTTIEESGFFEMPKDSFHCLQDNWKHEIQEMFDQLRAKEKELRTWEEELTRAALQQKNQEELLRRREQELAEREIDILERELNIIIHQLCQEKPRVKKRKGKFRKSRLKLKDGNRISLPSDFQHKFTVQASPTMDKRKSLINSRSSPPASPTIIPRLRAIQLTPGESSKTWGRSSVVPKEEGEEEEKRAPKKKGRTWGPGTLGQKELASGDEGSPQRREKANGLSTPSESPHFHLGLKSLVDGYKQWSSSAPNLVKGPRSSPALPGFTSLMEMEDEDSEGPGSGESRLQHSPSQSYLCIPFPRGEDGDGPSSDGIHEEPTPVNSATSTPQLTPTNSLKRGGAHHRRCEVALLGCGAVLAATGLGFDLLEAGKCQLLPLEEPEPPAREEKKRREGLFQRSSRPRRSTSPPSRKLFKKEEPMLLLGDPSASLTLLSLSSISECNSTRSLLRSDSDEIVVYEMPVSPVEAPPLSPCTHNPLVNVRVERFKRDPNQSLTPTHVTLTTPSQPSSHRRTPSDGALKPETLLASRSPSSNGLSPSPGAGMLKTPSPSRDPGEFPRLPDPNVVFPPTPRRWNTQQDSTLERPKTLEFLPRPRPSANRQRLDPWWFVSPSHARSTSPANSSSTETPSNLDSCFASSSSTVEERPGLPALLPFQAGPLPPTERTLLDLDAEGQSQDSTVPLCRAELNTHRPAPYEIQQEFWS

ABL2 (human) = ABL2 (human) (UniProt P42684)
PTK6 (human) = PTK6 (human) (UniProt Q13882)
MAPK10 (human) = MAPK10 (human) (UniProt P53779)
EPHB2 (human) = EPHB2 (human) (UniProt P29323)
DYRK2 (human) = DYRK2 (human) (UniProt Q92630)
[1] = molecular target: JAK1 JH1 catalytic (human) (UniProt P23458)
NUAK1 (human) = NUAK1 (human) (UniProt O60285)
TAOK1 (human) = TAOK1 (human) (UniProt Q7L7X3)
PRKD1 (human) = PRKD1 (human) (UniProt Q15139)
PRKD2 (human) = PRKD2 (human) (UniProt Q9BZL6)
LTK (human) = LTK (human) (UniProt P29376)
CDK9 CCNT1 (human) = CDK9 CCNT1 (human) (UniProt P50750+O60563)
PRKCZ (human) = PRKCZ (human) (UniProt Q05513)
MARK3 (human) = MARK3 (human) (UniProt P27448)
NUAK2 (human) = NUAK2 (human) (UniProt Q9H093)
Chain of NUAK2 (human) (Q9H093 whole entry, looked up): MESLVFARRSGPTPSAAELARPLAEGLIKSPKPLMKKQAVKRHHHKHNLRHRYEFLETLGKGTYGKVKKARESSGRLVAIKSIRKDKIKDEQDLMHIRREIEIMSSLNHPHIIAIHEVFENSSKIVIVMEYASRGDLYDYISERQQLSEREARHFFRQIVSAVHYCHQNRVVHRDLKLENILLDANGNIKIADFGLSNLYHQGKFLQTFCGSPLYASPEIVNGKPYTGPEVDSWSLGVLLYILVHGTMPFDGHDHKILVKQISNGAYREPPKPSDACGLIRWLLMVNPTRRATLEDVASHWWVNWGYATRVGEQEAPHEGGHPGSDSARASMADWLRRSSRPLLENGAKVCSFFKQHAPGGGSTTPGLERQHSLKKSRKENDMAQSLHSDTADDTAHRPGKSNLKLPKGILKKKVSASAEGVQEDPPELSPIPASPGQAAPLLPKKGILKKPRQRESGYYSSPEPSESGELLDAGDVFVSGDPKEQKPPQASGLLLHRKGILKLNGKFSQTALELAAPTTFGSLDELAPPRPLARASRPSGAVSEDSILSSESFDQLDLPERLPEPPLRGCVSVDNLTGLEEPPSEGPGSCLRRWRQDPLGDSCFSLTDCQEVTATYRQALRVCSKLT

| Structure (SMILES) | residual activity (MAP3K2 (human)) | residual activity (HIPK4 (human)) | residual activity (NEK1 (human)) | residual activity (PRKCA (human)) | residual activity (CAMKK1 (human)) | residual activity (CLK3 (human)) | residual activity (ITK (human)) | residual activity (PRKCD (human)) | residual activity (TTK (human)) | residual activity (TAOK2 (human)) | residual activity (CHEK1 (human)) | residual activity (NTRK2 (human)) | residual activity (PAK7 (human)) | residual activity (CSK (human)) | residual activity (MKNK2 (human)) | residual activity (CDK2 CCNE1 (human)) | residual activity (DSTYK (human)) | residual activity (CHEK2 (human)) | residual activity (CSNK1G1 (human)) | residual activity (BMX (human)) | further results |
| --- | --- | --- | --- | --- | --- | --- | --- | --- | --- | --- | --- | --- | --- | --- | --- | --- | --- | --- | --- | --- | --- |
| O=c1cc(N2CCOCC2)oc2c1ccc1ccccc12 | 109% | 101% | 106% | 89.2% | 112% | 81.1% | 100% | 95.1% | 103% | 108% | 104% | 94% | 108% | 101% | 88.5% | 119% | 110% | 104% | 101% | 92.7% | residual activity (AXL (human)): 98.1%; residual activity (GRK7 (human)): 107%; residual activity (YES1 (human)): 98.7%; residual activity (PKN2 (human)): 93.2%; residual activity (MAP3K9 (human)): 111%; residual activity (ABL2 (human)): 101%; residual activity (PTK6 (human)): 101%; residual activity (MAPK10 (human)): 73.8%; residual activity (EPHB2 (human)): 85%; residual activity (DYRK2 (human)): 88.9%; residual activity [1]: 104%; residual activity (NUAK1 (human)): 90.1%; residual activity (TAOK1 (human)): 97.5%; residual activity (PRKD1 (human)): 102%; residual activity (PRKD2 (human)): 101%; residual activity (LTK (human)): 101%; residual activity (CDK9 CCNT1 (human)): 99.1%; residual activity (PRKCZ (human)): 106%; residual activity (MARK3 (human)): 110%; residual activity (NUAK2 (human)): 120% |
| CCN(CC)C(=O)c1ccc(Nc2nc(OCC3CCCCC3)c3nc[nH]c3n2)cc1 | 25.3% | 96.5% | 53.1% | 82.5% | 96.8% | 84.1% | 57.3% | 76.7% | 47.8% | 66% | 66.1% | 54.3% | 49.1% | 83.1% | 89.3% | 76.5% | 106% | 71.3% | 68.5% | 42.9% | residual activity (AXL (human)): 80.8%; residual activity (GRK7 (human)): 103%; residual activity (YES1 (human)): 15.4%; residual activity (PKN2 (human)): 91.8%; residual activity (MAP3K9 (human)): 3.8%; residual activity (ABL2 (human)): 67.8%; residual activity (PTK6 (human)): 30.7%; residual activity (MAPK10 (human)): 108%; residual activity (EPHB2 (human)): 93.7%; residual activity (DYRK2 (human)): 98.2%; residual activity [1]: 51.8%; residual activity (NUAK1 (human)): 3.67%; residual activity (TAOK1 (human)): 57.9%; residual activity (PRKD1 (human)): 62.6%; residual activity (PRKD2 (human)): 67%; residual activity (LTK (human)): 66.1%; residual activity (CDK9 CCNT1 (human)): 88.8%; residual activity (PRKCZ (human)): 95.8%; residual activity (MARK3 (human)): 85.4%; residual activity (NUAK2 (human)): 23.1% |
| COc1ccc2c(c[n+](C)c3c4cc5c(cc4ccc23)OCO5)c1OC | 99.8% | 95.9% | 91.3% | 78.9% | 101% | 95.2% | 99.2% | 96.8% | 101% | 95% | 94.4% | 104% | 77.4% | 106% | 107% | 88.9% | 86.4% | 96.5% | 106% | 104% | residual activity (AXL (human)): 98%; residual activity (GRK7 (human)): 101%; residual activity (YES1 (human)): 93.8%; residual activity (PKN2 (human)): 93.3%; residual activity (MAP3K9 (human)): 98.1%; residual activity (ABL2 (human)): 96.7%; residual activity (PTK6 (human)): 94.4%; residual activity (MAPK10 (human)): 100%; residual activity (EPHB2 (human)): 97.1%; residual activity (DYRK2 (human)): 94.5%; residual activity [1]: 88.5%; residual activity (NUAK1 (human)): 96.6%; residual activity (TAOK1 (human)): 105%; residual activity (PRKD1 (human)): 100%; residual activity (PRKD2 (human)): 90.1%; residual activity (LTK (human)): 95.9%; residual activity (CDK9 CCNT1 (human)): 96.4%; residual activity (PRKCZ (human)): 97.7%; residual activity (MARK3 (human)): 98.7%; residual activity (NUAK2 (human)): 98.9% |
| CC(=O)c1ccc(N2CCOCC2)cc1O | 109% | 101% | 114% | 73.4% | 124% | 101% | 97% | 97.4% | 103% | 107% | 103% | 92.1% | 102% | 99.1% | 90.7% | 94.8% | 95.3% | 104% | 91.8% | 90.6% | residual activity (AXL (human)): 96.3%; residual activity (GRK7 (human)): 100%; residual activity (YES1 (human)): 100%; residual activity (PKN2 (human)): 94.8%; residual activity (MAP3K9 (human)): 112%; residual activity (ABL2 (human)): 104%; residual activity (PTK6 (human)): 104%; residual activity (MAPK10 (human)): 78.4%; residual activity (EPHB2 (human)): 82.5%; residual activity (DYRK2 (human)): 101%; residual activity [1]: 104%; residual activity (NUAK1 (human)): 92.8%; residual activity (TAOK1 (human)): 99.4%; residual activity (PRKD1 (human)): 102%; residual activity (PRKD2 (human)): 97.4%; residual activity (LTK (human)): 102%; residual activity (CDK9 CCNT1 (human)): 100%; residual activity (PRKCZ (human)): 111%; residual activity (MARK3 (human)): 108%; residual activity (NUAK2 (human)): 104% |
| Cc1ccc(S(=O)(=O)/C=C/C#N)cc1 | 91.8% | 108% | 92.3% | 70.6% | 114% | 106% | 102% | 95.6% | 107% | 89.7% | 97.5% | 98.5% | 100% | 97.2% | 119% | 89.2% | 97.8% | 107% | 101% | 105% | residual activity (GRK7 (human)): 92.6%; residual activity (YES1 (human)): 94.2%; residual activity (PKN2 (human)): 81.5%; residual activity (MAP3K9 (human)): 96.9%; residual activity (ABL2 (human)): 104%; residual activity (PTK6 (human)): 93.1%; residual activity (MAPK10 (human)): 107%; residual activity (EPHB2 (human)): 104%; residual activity (DYRK2 (human)): 102%; residual activity [1]: 98.2%; residual activity (NUAK1 (human)): 101%; residual activity (TAOK1 (human)): 96.5%; residual activity (PRKD1 (human)): 93.8%; residual activity (PRKD2 (human)): 98.1%; residual activity (LTK (human)): 114%; residual activity (CDK9 CCNT1 (human)): 98.2%; residual activity (PRKCZ (human)): 101%; residual activity (MARK3 (human)): 100%; residual activity (NUAK2 (human)): 88.4% |

Source: the kinase profiling compilation of Christmann-Franck et al. (2016)
